Source: ChEMBL document CHEMBL1201862, “PubChem BioAssay data set” (2004)
Activity calls are given as the source filed them. No stated cut-off is given here; in the data, actives have a measured IC50 and inactives only a lower limit.

Molecular target: Envelope glycoprotein gp160 (Human immunodeficiency virus 1, UniProt Q6QLK5)
Experiment: cell-free HIV fusion peptide-binding blockers – biochemical, uHTS, fluorescence dequenching, […] (AID 1986)

Chain of Envelope glycoprotein gp160 (Q6QLK5 whole entry, the tested form may be a part): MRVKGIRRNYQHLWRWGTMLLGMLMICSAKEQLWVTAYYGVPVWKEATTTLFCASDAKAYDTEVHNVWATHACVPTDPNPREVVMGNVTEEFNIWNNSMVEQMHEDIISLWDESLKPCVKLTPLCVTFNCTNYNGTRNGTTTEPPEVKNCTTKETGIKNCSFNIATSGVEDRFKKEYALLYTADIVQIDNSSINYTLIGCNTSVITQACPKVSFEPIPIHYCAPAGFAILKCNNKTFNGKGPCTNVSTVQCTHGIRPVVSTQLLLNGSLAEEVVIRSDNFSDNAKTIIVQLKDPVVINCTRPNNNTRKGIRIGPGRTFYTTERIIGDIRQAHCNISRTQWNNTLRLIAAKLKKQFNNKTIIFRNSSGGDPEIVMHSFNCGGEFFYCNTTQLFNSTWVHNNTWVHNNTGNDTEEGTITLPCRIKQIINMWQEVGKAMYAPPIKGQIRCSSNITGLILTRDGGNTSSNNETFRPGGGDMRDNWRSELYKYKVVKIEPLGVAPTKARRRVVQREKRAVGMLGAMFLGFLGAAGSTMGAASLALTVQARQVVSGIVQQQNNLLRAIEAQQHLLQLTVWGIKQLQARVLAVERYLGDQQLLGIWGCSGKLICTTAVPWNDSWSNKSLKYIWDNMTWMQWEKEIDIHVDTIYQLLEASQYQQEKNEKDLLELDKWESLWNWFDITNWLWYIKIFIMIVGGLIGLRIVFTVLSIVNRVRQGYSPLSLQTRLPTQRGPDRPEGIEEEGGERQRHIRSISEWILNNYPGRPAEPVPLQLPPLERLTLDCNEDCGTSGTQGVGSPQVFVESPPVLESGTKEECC

Row | Structure (SMILES) | IC50
1 | COc1ccccc1N1N=C(C(=O)c2ccccc2)C2C(=O)N(c3ccc(Br)cc3)C(=O)C21 (stereo not drawn) | 14.6 µM (active)
2 | Cc1ccc(NS(=O)(=O)c2ccc(N/N=C/c3ccccc3OCC(=O)O)c([N+](=O)[O-])c2)c(C)c1 | 13.8 µM (active)
3 | COc1cc(/C=C2\S/C(=N\c3ccccc3)N(CCc3c[nH]c4ccccc34)C2=O)ccc1OC(C)C(=O)O (stereo not drawn) | 16.9 µM (active)
